“Also recorded” adds a separate entry of the source.
Columns and labels:
ELANE-CN iPSCs = test: Colony-forming unit (CFU) assay of CD34+ cells from EB-based CN-iPSC culture; format: cell-based, human
Protocol: Colony-forming unit (CFU) assay of CD34^+ cells harvested from EB-based CN-iPSC culture on day 14 of differentiation treated with eleven short listed small molecules.
EB-Based Hematopoietic Differentiation of iPSCs iPSCs were cultured on SNL feeder cells for 24 hours and then dissociated using PBS/EDTA (0.02%) for 5 min. EB generation was performed by centrifugation of 2×10^4 cells per EB in 96-well plates using APEL serum-free differentiation medium (Stemcell Technologies) supplemented with bFGF (20 ng/μl) and ROCK Inhibitor (R&D). On day one, BMP4 (40 ng/μl) was added to the culture medium to induce mesodermal differentiation. On day four, EBs were plated on Matrigel-coated 6-well plates (10 EBs/well) in APEL medium supplemented with VEGF (40 ng/μl), SCF (50 ng/μl) and IL-3 (50 ng/μl). For neutrophilic differentiation, the medium was changed 3 days later to fresh APEL medium supplemented with IL3 (50 ng/μl) and G-CSF (50 ng/μl). All cytokines were purchased from R&D Systems if nothing else is indicated. First hematopoietic suspension cells appeared between day 10 and 14. Suspension cells were harvested every 3-4 days and analyzed starting from day 14 to day 32.
The inventors then selected eleven small molecules that could potentially mimic the differentially expressed genes (DEGs) signature between CN and CN-corrected HSPCs and screened the effect of these small molecules on granulopoiesis using their isogenic CN iPSC model.

[1] = system: primary bone marrow CD34+ HSPCs of healthy donors; test: CFU assay of primary bone marrow CD34+ HSPCs of healthy donors; format: cell-based, human; details: 40 nM, compared to DMSO control
Text: FIG. 3A. […] Data represent means±SD from two independent experiments. **P<0.01.

[2] = system: primary bone marrow CD34+ HSPCs of healthy donors; test: Granulocytic liquid culture differentiation (LCD) of healthy donor CD34+ HSPCs; format: cell-based, human; details: for neutrophil count, morphological examination of cytospin preparations: day 14
Protocol: (§1) CD34+ cells were seeded in a 24-well plate at a density of 2×10^5 cells/ml. […] Medium was exchanged every second day. On day 7, cells were plated in RPMI 1640 GlutaMAX supplemented with 10% FBS, 1% penicillin/streptomycin and 10 ng/ml G-CSF. On day 14, cells were analyzed by flow cytometry using following mouse anti-human antibodies: CD34 (BD, #348811), CD33 (BioLegend, #303416), CD45 (BioLegend, #304036), CD11b (BD, #557754), CD15 (BD, #555402), CD66b (BioLegend, #305114), CD16 (BD, #561248).

[3] = system: primary bone marrow CD34+ HSPCs of ELANE-CN, HAX1-CN, JAGN1-CN and SRP54-CN patients; test: CFU assay of primary bone marrow CD34+ HSPCs of CN patients; format: cell-based, human; details: two ELANE-CN, one HAX1-CN, one SRP54-CN patient, 40 nM
Text: FIG. 4A. […] Data represent means±SD from two independent experiments. *P<0.05, **P<0.01.

[4] = system: primary bone marrow CD34+ HSPCs of ELANE-CN, HAX1-CN, JAGN1-CN and SRP54-CN patients; test: Granulocytic liquid culture differentiation (LCD) of CN patient CD34+ HSPCs; format: cell-based, human; details: all CN patients
Protocol: as §1

HSPCs (CD41: gfp+ cells) = test: Zebrafish in vivo model, number of HSPCs in tg(CD41:gfp) embryos; details: up to 10 µM, two days, compared to DMSO-treated controls
Protocol: (§2) Zebrafish transgenic lines and wild type were maintained according to standard protocols and handled in accordance with European Union animal protection directive 2010/63/EU. The maintenance was approved by the local government (Tierschutzgesetz § 11, Abs. 1, Nr. 1, husbandry permit 35/9185.46/Uni TÜ). All the experiments were performed in zebrafish embryos under 5 days post fertilization. In this study the inventors used two transgenic (tg) reporter lines, tg(mpo: gfp), where neutrophils express gfp and tg(CD41:gfp),where HSPCs express gfp, both described in the art.
(§3) To generate the jagn1b and hax1 mutants two different approaches were used, CRISPR/Cas9-mediated knock-out and morpholino-based knock down, respectively. On the one hand, to interfere with the function of jagn1b, jagn1b-targeting sgRNA and Cas9 protein RNPs (Alt-R S.p. Cas9 nuclease, v.3, IDT) were injected into the blastomere of 1-cell stage tg (mpo: gfp) embryos, as described in the art. On the other hand, to interfere with hax1 function 1 mM hax1-specific morpholino (GeneTool) was injected into 1-cell stage tg (mpo: gfp) embryos as previously described in the art. […] After two days of treatment, the number of mpo:gfp^+ or CD41:gfp^+ cells where quantified using a Nikon stereo-fluorescent SMZ18 microscope.

[5] = system: jagn1b knock-out zebrafish mutant embryos; test: Zebrafish jagn1b knock-out neutropenia model, number of neutrophils; format: in vivo; details: two days treatment
Protocol: as §2, §3

[6] = system: hax1-knock-down zebrafish mutant embryos (hax1 MO); test: Zebrafish hax1 knock-down neutropenia model, number of neutrophils; format: in vivo; details: two days treatment
Protocol: as §2, §3

[7] = system: human primary neutrophils of healthy donor; test: RealTime-Glo MT Cell Viability Assay on human primary neutrophils; format: cell-based; details: 40 nM, compared with 0.1% DMSO
Text: The assay measures the reducing potential of viable cells in an ATP-independent manner and the nonlytic nature, high sensitivity and rapid response of the assay make it possible to track the cell viability over time in the same plate. Ficoll-Paque density gradient media (density: 1.077 g/mL) used for isolation of peripheral blood polymononuclear cell (PBPMNs) 1 of healthy donors.

[8] = system: CD34+ HSPCs of healthy donors; test: Annexin V apoptosis assay on CD34+ HSPCs; format: cell-based, human; details: 40 nM, 48 hours
[9] = system: CD34+ HSPCs of healthy donors; test: RealTime-Glo MT Cell Viability Assay on CD34+ HSPCs; format: cell-based, human; details: 40 nM, 48 hours, versus DMSO-treated group
[10] = system: in vitro generated neutrophils; test: Annexin V apoptosis assay on in vitro generated neutrophils; format: cell-based, human; details: day 13 of LCD, four healthy donors
[11] = system: in vitro generated neutrophils; test: RealTime-Glo MT cell viability assay on in vitro generated neutrophils; format: cell-based, human; details: day 13 of LCD, four healthy donors
[12] = system: in vitro generated neutrophils; test: Reactive oxygen species (ROS) assay of in vitro generated neutrophils; format: cell-based, human; details: differentiated in the presence of 40 nM flavopiridol
[13] = system: in vitro generated neutrophils; test: Chemotaxis assay of in vitro generated neutrophils; format: cell-based, human; details: differentiated in the presence of 40 nM flavopiridol
[14] = system: in vitro generated neutrophils; test: Phagocytosis assay of in vitro generated neutrophils; format: cell-based, human; details: differentiated in the presence of 40 nM flavopiridol
[15] = prior-art clinical trials, used to inhibit CDKs and induce apoptosis in leukemia cells (Gerson et al. 2018); cited from earlier work
[16] = three independent ELANE-CN derived iPSCs, 40 nM flavopiridol

**Q.** What does the source list for `CN1CC[C@H](c2c(O)cc(O)c3c(=O)cc(-c4ccccc4Cl)oc23)[C@H](O)C1` [flavopiridol]?
**A.** granulopoiesis in CN iPSCs (screening) (ELANE-CN iPSCs; screen of eleven small molecules in isogenic CN iPSC model): markedly restored the granulopoiesis; CFU-macrophages (CFU-Ms) (ELANE-CN iPSCs; [16]): significant decrease; colony-forming unit-granulocytes (CFU-G) (ELANE-CN iPSCs; [16]): significant increase; levels of CFU-G ([1]; healthy donor one (HD1)): significantly elevated levels of CFU-G; levels of CFU-G ([1]; healthy donor two (HD2)): no significant change; granulopoiesis: numbers of granulocytes (CD45+CD15+CD11b+, CD45+CD15+CD66b+) and mature neutrophils (CD45+CD15+CD16+) ([2]; both healthy donors, 40 nM, 14 days, flow cytometry): significantly enhanced granulopoiesis; neutrophil count, morphological examination of cytospin preparations ([2]; healthy donor one (HD1)): no change; neutrophil count, morphological examination of cytospin preparations ([2]; healthy donor two (HD 2)): a significant increase in neutrophil count; levels of CFU-G [3]: significantly elevated levels of CFU-G in all CN groups; granulopoiesis: numbers of granulocytes and mature neutrophils by flow cytometry ([4]; 40 nM, 14 days): significant restoration of granulopoiesis; granulopoiesis, morphological examination of cytospin preparations ([4]; day 14): significant restoration or restoration trend of granulopoiesis; total number of HSPCs (CD41: gfp+ cells) (HSPCs (CD41: gfp+ cells)): did not affect; number of neutrophils (mpo: gfp+ cells) [5]: significantly restored the number of neutrophils (mpo: gfp^+ cells) to a similar level to wildtype controls; also recorded: restored the number of neutrophils (mpo: gfp^+ cells) to a similar level than the wildtype controls; number of neutrophils (mpo: gfp+ cells) [6]: significantly restored the number of neutrophils (mpo: gfp^+ cells) to a similar level to wildtype controls; also recorded: increased to a similar level than the wildtype controls; viability of neutrophils ([7]; 3 hours): No significant difference; viability of neutrophils ([7]; 24 hours): No significant difference; viability of neutrophils ([7]; 48 hours): No significant difference; apoptosis in CD34+ HSPCs [8]: did not induce apoptosis; viability of CD34+ HSPCs [9]: comparable to that of the DMSO-treated group; early apoptotic cells [10]: about 3%; late apoptotic cells [10]: less than 2%; live cells [10]: More than 95%; levels of viability upon differentiation [11]: improved levels of viability; neutrophil function, reactive oxygen species (ROS) [12]: did not affect neutrophil function; neutrophil function, chemotaxis [13]: did not affect neutrophil function; neutrophil function, phagocytosis [14]: did not affect neutrophil function; steady-state blood plasma levels [15]: about 350 nM
